# Test results as given in US20210283199A1 (priority 2020, published 2021).
# “Also recorded” adds a separate entry of the source.
# How the values were obtained:
# Format in all cases: cell-based, Clostridium perfringens
# [1] = test system: C. perfringens strain 4.6
# [2] = test system: C. perfringens strain 4.6; remark: listed apart in the source
# agrD gene = test system: agrD gene
# netB gene = test system: netB gene
# [3] = test system: perfringolysin O (pfoA) toxin secreted by C. perfringens CP4.6
# C. perfringens CP4.6 = test system: C. perfringens CP4.6
substance,measurement,setting,value
fengycin,biofilm formation,[1],inhibited the ability of the organism to form biofilm
same,"cell growth (cell count, cfu/ml)",[2],did not interfere and had minimal effect on cell growth
same,expression of agrD gene,agrD gene,downregulated
same,lowest concentration that downregulates expression of agrD,agrD gene,0.1 ppm
same,expression of netB gene,netB gene,downregulated
same,lowest concentration that downregulates expression of netB,netB gene,0.1 ppm
same,hemolysis activity (zone of clearing),[3],reduced significantly; also recorded: completely inhibited
same,C. perfringens cell growth (planktonic cell count),C. perfringens CP4.6,did not interfere and had minimal effect on C. perfringens cell growth
